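Growth conditions: 96-well plates. Treatment: test compound, 48 hours, 5 concentrations. Analysis: linear interpolation between bracketing concentrations; unreached endpoints set to highest concentration. Definition used: TGI = concentration required for complete inhibition of growth.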

Among the test systems are UACC-257 melanoma; SN12C renal; COLO 205 colon; ACHN renal; MDA-MB-435; MDA-MB-231 breast; SK-OV-3 ovarian; LOX IMVI melanoma; NCI-H23 lung; A549 NSCLC; 786-0 renal; PC-3 prostate; U251 CNS; HT29 colon; SNB-19 CNS; DU-145 prostate; OVCAR-5 ovarian; HCC-2998 colon.
Holding throughout (experiment): NCI anticancer screen, dose series, 48 h

On to `CCOC(=O)C1(C/C=C/CBr)CCc2ccccc2C1=O` (stereo not drawn), for which the TGI with UACC-257 melanoma stood at 34.8 µM; in the experiment with SN12C renal it was 34.8 µM; in the experiment with COLO 205 colon, 42.6 µM; in the experiment on ACHN renal, 29.1 µM; in the experiment on MDA-MB-435, 31 µM; with MDA-MB-231 breast, 56 µM. Further, the TGI in the experiment on SK-OV-3 ovarian came to 33.1 µM; in the experiment on LOX IMVI melanoma, 27.5 µM; with NCI-H23 lung, 39.8 µM; in the experiment with A549 NSCLC, 30.6 µM; in the experiment on 786-0 renal, 31.2 µM; with PC-3 prostate, 43 µM. Further, the TGI turned out to be 31.2 µM with U251 CNS; 52.3 µM with HT29 colon; 30.8 µM with SNB-19 CNS; 26.9 µM in the experiment on DU-145 prostate; 70.2 µM in the experiment with OVCAR-5 ovarian.

For the molecule `CN1CCc2c(sc3ncn(C)c(=N)c23)C1`, the TGI in the experiment on UACC-257 melanoma, with SN12C renal, with COLO 205 colon, in the experiment on ACHN renal, with MDA-MB-435 and in the experiment with MDA-MB-231 breast was more than 100 µM each time. Further, the TGI in the experiment with SK-OV-3 ovarian, in the experiment on LOX IMVI melanoma, in the experiment with NCI-H23 lung, in the experiment with A549 NSCLC, with 786-0 renal and with PC-3 prostate was more than 100 µM in each case. Besides, the TGI with U251 CNS, in the experiment with HT29 colon, in the experiment with SNB-19 CNS, in the experiment on DU-145 prostate and in the experiment with OVCAR-5 ovarian was more than 100 µM each time.

As to `CCCCCCCCCCCCC/C=C/[C@@H](O)[C@H](COC1OC(CO)C(OC2OC(CO)C(O)C(OC3(C(=O)O)CC(O)C(NC(C)=O)C(C(O)C(O)CO)O3)C2O)C(O)C1O)N=[N+]=[N-]` (stereo partly drawn), the TGI with UACC-257 melanoma was more than 100 µM; in the experiment on SN12C renal, more than 100 µM; in the experiment with COLO 205 colon, 33.9 µM; in the experiment with ACHN renal it was more than 100 µM; with MDA-MB-435, more than 100 µM; with MDA-MB-231 breast, more than 100 µM. For the same molecule, the TGI is 78.8 µM in the experiment with SK-OV-3 ovarian; 36.6 µM in the experiment with LOX IMVI melanoma; more than 100 µM with NCI-H23 lung; more than 100 µM in the experiment with A549 NSCLC; more than 100 µM in the experiment on 786-0 renal; 59.4 µM with PC-3 prostate. For the same molecule, the TGI with HCC-2998 colon was more than 100 µM; in the experiment on U251 CNS, 36.1 µM; with HT29 colon, 58.5 µM; in the experiment with SNB-19 CNS, 93.7 µM; in the experiment with DU-145 prostate it was more than 100 µM; in the experiment on OVCAR-5 ovarian it was more than 100 µM.

In the case of `c1ccc(NN=C(c2ccccn2)c2ccccn2)nc1`, the TGI in the experiment with UACC-257 melanoma, in the experiment on SN12C renal, in the experiment with COLO 205 colon, with ACHN renal, with MDA-MB-435 and with MDA-MB-231 breast was more than 100 µM in each case. Moreover, the TGI with SK-OV-3 ovarian was more than 100 µM; in the experiment on LOX IMVI melanoma, more than 100 µM; with NCI-H23 lung it was more than 100 µM; with A549 NSCLC it was more than 21 µM; with 786-0 renal, more than 100 µM; in the experiment on PC-3 prostate it was more than 100 µM. Further, the TGI in the experiment with HCC-2998 colon is more than 100 µM; in the experiment on U251 CNS, more than 61.9 µM; with HT29 colon it was more than 100 µM; in the experiment with SNB-19 CNS, more than 100 µM; in the experiment on DU-145 prostate, more than 100 µM; in the experiment with OVCAR-5 ovarian it was more than 100 µM.

As to `COc1ccc2[nH]c3c(c2c1)CC(=S)N1CCCC(CC3=O)C1` (stereo not drawn), the TGI in the experiment on UACC-257 melanoma, with SN12C renal, in the experiment with COLO 205 colon, in the experiment on ACHN renal, in the experiment with MDA-MB-435 and with MDA-MB-231 breast was more than 100 µM in each case. For the same molecule, the TGI in the experiment on SK-OV-3 ovarian, in the experiment on NCI-H23 lung, with A549 NSCLC, in the experiment on 786-0 renal, in the experiment with PC-3 prostate and in the experiment on HCC-2998 colon was more than 100 µM each time. Besides, the TGI in the experiment with U251 CNS, with HT29 colon, with SNB-19 CNS, in the experiment with DU-145 prostate and with OVCAR-5 ovarian was more than 100 µM throughout.

For `O=C(O/C=C\OC1CCCC1(c1ccccc1)c1ccccc1)c1ccccc1` (stereo not drawn), the TGI in the experiment on UACC-257 melanoma was found to be 33 µM; in the experiment with SN12C renal, 13.7 µM; in the experiment with COLO 205 colon, 31.5 µM; with ACHN renal, 13.9 µM; in the experiment on MDA-MB-231 breast it was 6.17 µM; in the experiment with SK-OV-3 ovarian it was 30.5 µM. Also, the TGI in the experiment with LOX IMVI melanoma is 3.22 µM; in the experiment on NCI-H23 lung, 6.07 µM; in the experiment with A549 NSCLC it was more than 68.5 µM; in the experiment with 786-0 renal, 14 µM; in the experiment on PC-3 prostate it was 13.6 µM; in the experiment on HCC-2998 colon, more than 49.4 µM. For the same molecule, the TGI was 12.4 µM in the experiment with U251 CNS; 13.8 µM in the experiment on HT29 colon; 28.9 µM in the experiment with SNB-19 CNS; 13.6 µM in the experiment with DU-145 prostate; 31.1 µM in the experiment with OVCAR-5 ovarian.

With `COc1ccc2c(c1)C(=O)OCCC2`, the TGI in the experiment on UACC-257 melanoma, in the experiment with SN12C renal, in the experiment on COLO 205 colon, with ACHN renal, in the experiment with MDA-MB-435 and in the experiment with MDA-MB-231 breast was more than 100 µM in each case. The TGI with SK-OV-3 ovarian, in the experiment with NCI-H23 lung, in the experiment with A549 NSCLC, in the experiment on 786-0 renal, in the experiment on PC-3 prostate and with HCC-2998 colon was more than 100 µM in each case. In addition, the TGI in the experiment on U251 CNS, with HT29 colon, with SNB-19 CNS, in the experiment with DU-145 prostate and with OVCAR-5 ovarian was more than 100 µM each time.

As for `Oc1cc(O)cc(-c2nc3cc(F)ccc3s2)c1`, the TGI was 45.6 µM with UACC-257 melanoma; 76.4 µM in the experiment with SN12C renal; 40 µM with COLO 205 colon; 81.3 µM in the experiment with ACHN renal; more than 100 µM in the experiment with MDA-MB-435; 55.8 µM with MDA-MB-231 breast. Also, the TGI in the experiment with SK-OV-3 ovarian is 70.4 µM; with LOX IMVI melanoma, 39.3 µM; in the experiment with NCI-H23 lung, 94.5 µM; in the experiment on A549 NSCLC, more than 100 µM; with 786-0 renal it was 47.1 µM; in the experiment with PC-3 prostate, 83.6 µM. Further, the TGI in the experiment on U251 CNS is 60.5 µM; in the experiment with HT29 colon it was 44.8 µM; with SNB-19 CNS, 97.2 µM; in the experiment with DU-145 prostate it was more than 100 µM; with OVCAR-5 ovarian it was 57.2 µM.

The values above are taken from PubChem BioAssay (NCI).
